The target in the test is human APJ receptor (Homo sapiens (Human), UniProt P35414). Nature of the test: [35S]GTPγS binding assay on membranes from CHO cells stably expressing human APJ receptor. The test is classed as biochemical. The following applies: membranes of CHO cells stably expressing human APJ receptor, read-out: Activity hAPJ SPA EC50 IP. The gist of the method: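 [35S]GTPγS binding measured on membranes from CHO cells stably expressing FLAG-tagged human APJ, with GDP, MgCl2 and NaCl levels optimized beforehand. Incubation 90 min at RT, imager read-out; EC50 from non-linear regression, averaged over several independent experiments.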
Sequence of human APJ receptor (P35414 whole entry): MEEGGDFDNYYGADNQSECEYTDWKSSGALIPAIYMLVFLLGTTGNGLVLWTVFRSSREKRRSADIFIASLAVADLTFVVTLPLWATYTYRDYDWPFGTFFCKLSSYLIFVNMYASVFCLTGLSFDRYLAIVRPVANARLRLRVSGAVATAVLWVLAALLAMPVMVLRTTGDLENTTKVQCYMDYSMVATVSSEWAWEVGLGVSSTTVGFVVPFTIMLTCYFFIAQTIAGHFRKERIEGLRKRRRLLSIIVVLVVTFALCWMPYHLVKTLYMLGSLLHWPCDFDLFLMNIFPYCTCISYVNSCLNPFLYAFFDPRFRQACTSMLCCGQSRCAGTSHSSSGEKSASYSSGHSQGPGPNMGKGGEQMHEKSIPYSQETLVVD
In the case of `COc1cccc(-c2nnc(NS(=O)(=O)[C@@H](C)[C@H](OC)c3ncc(Cl)cn3)n2[C@H](C)c2cscn2)n1` (single isomer, unassigned) [Example 345.0, (1R,2S)-1-(5-chloropyrimidin-2-yl)-1-methoxy-N-(5-(6-methoxypyridin-2-yl)-4-((S)-1-(thiazol-4-yl)ethyl)-4H-1,2,4-triazol-3-yl)propane-2-sulfonamide or (1R,2 S)-1-(5-chloropyrimidin-2-yl)-1-methoxy-N-(5-(6-methoxypyridin-2-yl)-4-((R)-1-(thiazol-4-yl)ethyl)-4H-1,2,4-triazol-3-yl)propane-2-sulfonamide], the EC50 came out at 1.1 nM. For `COc1cccc(-c2nnc(NS(=O)(=O)[C@@H](C)[C@H](OC)c3ncc(Cl)cn3)n2[C@H](C)c2cncs2)n1` (single isomer, unassigned) [Example 346.0, (1R,2S)-1-(5-chloropyrimidin-2-yl)-1-methoxy-N-(5-(6-methoxypyridin-2-yl)-4-((R)-1-(thiazol-5-yl)ethyl)-4H-1,2,4-triazol-3-yl)propane-2-sulfonamide or (1R,2S)-1-(5-chloropyrimidin-2-yl)-1-methoxy-N-(5-(6-methoxypyridin-2-yl)-4-((S)-1-(thiazol-5-yl)ethyl)-4H-1,2,4-triazol-3-yl)propane-2-sulfonamide] the value was 4.4 nM; for `COc1cccc(-c2nnc(NS(=O)(=O)[C@@H](C)[C@H](OC)c3ncc(Cl)cn3)n2[C@H](C)c2cncs2)n1` (single isomer, unassigned) [Example 347.0, (1R,2S)-1-(5-chloropyrimidin-2-yl)-1-methoxy-N-(5-(6-methoxypyridin-2-yl)-4-((R)-1-(thiazol-5-yl)ethyl)-4H-1,2,4-triazol-3-yl)propane-2-sulfonamide or (1R,2S)-1-(5-chloropyrimidin-2-yl)-1-methoxy-N-(5-(6-methoxypyridin-2-yl)-4-((S)-1-(thiazol-5-yl)ethyl)-4H-1,2,4-triazol-3-yl)propane-2-sulfonamide], 0.48 nM; for `COc1cccc(-c2nnc(NS(=O)(=O)[C@@H](C)[C@H](OC)c3ncc(Cl)cn3)n2[C@H](C)c2cncc(F)c2)n1` (single isomer, unassigned) [Example 348.0, (1R,2S)-1-(5-chloropyrimidin-2-yl)-N-(4-((R)-1-(5-fluoropyridin-3-yl)ethyl)-5-(6-methoxypyridin-2-yl)-4H-1,2,4-triazol-3-yl)-1-methoxypropane-2-sulfonamide or (1R,2S)-1-(5-chloropyrimidin-2-yl)-N-(4-((S)-1-(5-fluoropyridin-3-yl)ethyl)-5-(6-methoxypyridin-2-yl)-4H-1,2,4-triazol-3-yl)-1-methoxypropane-2-sulfonamide], 1.34 nM. On to `COc1cccc(-c2nnc(NS(=O)(=O)[C@@H](C)[C@H](OC)c3ncc(Cl)cn3)n2[C@H](C)c2cncc(F)c2)n1` (single isomer, unassigned) [Example 349.0, (1R,2S)-1-(5-chloropyrimidin-2-yl)-N-(4-((R)-1-(5-fluoropyridin-3-yl)ethyl)-5-(6-methoxypyridin-2-yl)-4H-1,2,4-triazol-3-yl)-1-methoxypropane-2-sulfonamide or (1R,2S)-1-(5-chloropyrimidin-2-yl)-N-(4-((S)-1-(5-fluoropyridin-3-yl)ethyl)-5-(6-methoxypyridin-2-yl)-4H-1,2,4-triazol-3-yl)-1-methoxypropane-2-sulfonamide], for which the EC50 stood at 0.43 nM. Next, `COc1cccc(-c2nnc(NS(=O)(=O)[C@@H](C)[C@H](OC)c3ncc(Cl)cn3)n2[C@H](C)c2cccnc2)n1` (single isomer, unassigned) [Example 350.0, (1R,2S)-1-(5-chloropyrimidin-2-yl)-1-methoxy-N-(5-(6-methoxypyridin-2-yl)-4-((R)-1-(pyridin-3-yl)ethyl)-4H-1,2,4-triazol-3-yl)propane-2-sulfonamide or (1R,2S)-1-(5-chloropyrimidin-2-yl)-1-methoxy-N-(5-(6-methoxypyridin-2-yl)-4-((S)-1-(pyridin-3-yl)ethyl)-4H-1,2,4-triazol-3-yl)propane-2-sulfonamide]: 7.84 nM; `COc1cccc(-c2nnc(NS(=O)(=O)[C@@H](C)[C@H](OC)c3ncc(Cl)cn3)n2[C@H](C)c2cccnc2)n1` (single isomer, unassigned) [Example 351.0, (1R,2S)-1-(5-chloropyrimidin-2-yl)-1-methoxy-N-(5-(6-methoxypyridin-2-yl)-4-((R)-1-(pyridin-3-yl)ethyl)-4H-1,2,4-triazol-3-yl)propane-2-sulfonamide or (1R,2S)-1-(5-chloropyrimidin-2-yl)-1-methoxy-N-(5-(6-methoxypyridin-2-yl)-4-((S)-1-(pyridin-3-yl)ethyl)-4H-1,2,4-triazol-3-yl)propane-2-sulfonamide]: 0.36 nM; `COCCn1c(NS(=O)(=O)[C@H](C)[C@@H](C)c2ncc(Cl)cn2)nnc1-c1cccnc1` (stereo in doubt) [Example 18.0, (2R,3S)-3-(5-chloro-2-pyrimidinyl)-N-(4-(2-methoxyethyl)-5-(3-pyridinyl)-4H-1,2,4-triazol-3-yl)-2-butanesulfonamide]: 250 nM.

Consider `COc1cccc(-c2nnc(NS(=O)(=O)[C@@H](C)[C@H](OC)c3ncc(Cl)cn3)n2[C@@H]2CCC23CCC3)n1` (stereo in doubt) [Example 56.0], for which the EC50 was 1.9 nM. For `COc1cccc(-c2nnc(NS(=O)(=O)[C@@H](C)[C@H](OC)c3ncc(Cl)cn3)n2[C@H]2CCCC[C@H]2C)n1` (stereo in doubt) [Example 75.0] the value was 3 nM. Turning to `COc1cccc(-c2nnc(NS(=O)(=O)[C@@H](C)[C@H](C)c3ncc(Cl)cn3)n2CC2COC2)n1` [Example 2.0, (2S,3R)-3-(5-chloro-2-pyrimidinyl)-N-(5-(6-methoxy-2-pyridinyl)-4-(3-oxetanylmethyl)-4H-1,2,4-triazol-3-yl)-2-butanesulfonamide], the EC50 was more than 4200 nM. For `COCCn1c(NS(=O)(=O)[C@@H](C)[C@H](OC)c2ncc(Cl)cn2)nnc1-c1cccc(OC)n1` [Example 3.0, (1R,2S)-1-(5-chloro-2-pyrimidinyl)-1-methoxy-N-(4-(2-methoxyethyl)-5-(6-methoxy-2-pyridinyl)-4H-1,2,4-triazol-3-yl)-2-propanesulfonamide] the value was 2.8 nM; for `COCC1(n2c(NS(=O)(=O)[C@@H](C)[C@H](OC)c3ncc(Cl)cn3)nnc2-c2cccc(OC)n2)CC1` [Example 4.0], 0.16 nM. On to `COc1cccc(-c2nnc(NS(=O)(=O)[C@@H](C)[C@H](OC)c3ncc(Cl)cn3)n2C(CO)CO)n1` [Example 5.0, (1R,2S)-1-(5-chloro-2-pyrimidinyl)-N-(4-(2-hydroxy-1-(hydroxymethyl)ethyl)-5-(6-methoxy-2-pyridinyl)-4H-1,2,4-triazol-3-yl)-1-methoxy-2-propanesulfonamide], for which the EC50 is 50 nM. For `COCC(COC)n1c(NS(=O)(=O)[C@@H](C)[C@H](OC)c2ncc(Cl)cn2)nnc1-c1cccc(OC)n1` [Example 6.0, (1R,2S)-1-(5-chloro-2-pyrimidinyl)-1-methoxy-N-(4-(2-methoxy-1-(methoxymethyl)ethyl)-5-(6-methoxy-2-pyridinyl)-4H-1,2,4-triazol-3-yl)-2-propanesulfonamide] the value was 0.3 nM; for `COc1cccc(-c2nnc(NS(=O)(=O)[C@@H](C)[C@H](OC)c3ncc(Cl)cn3)n2C2CC3(COC3)C2)n1` [Example 7.0, (1R,2S)-1-(5-chloro-2-pyrimidinyl)-1-methoxy-N-(5-(6-methoxy-2-pyridinyl)-4-(2-oxaspiro[3.3]hept-6-yl)-4H-1,2,4-triazol-3-yl)-2-propanesulfonamide], 240 nM. For `COCC(COC)n1c(NS(=O)(=O)[C@@H](C)[C@H](OC)c2ncc(C)cn2)nnc1-c1ccccn1` [Example 8.0, (1R,2S)-N-(4-(1,3-dimethoxy-2-propanyl)-5-(2-pyridinyl)-4H-1,2,4-triazol-3-yl)-1-methoxy-1-(5-methyl-2-pyrimidinyl)-2-propanesulfonamide] the value was 19 nM. With `CCC(CC)n1c(NS(=O)(=O)[C@@H](C)[C@H](OC)c2ncc(Cl)cn2)nnc1-c1cccc(OC)n1` [Example 10.0, (1R,2S)-1-(5-chloro-2-pyrimidinyl)-1-methoxy-N-(5-(6-methoxy-2-pyridinyl)-4-(3-pentanyl)-4H-1,2,4-triazol-3-yl)-2-propanesulfonamide], the EC50 was found to be 0.32 nM. Next, `COc1cccc(-c2nnc(NS(=O)(=O)[C@@H](C)[C@H](OC)c3ncc(Cl)cn3)n2C(C)C)n1` [Example 11.0, (1R,2S)-1-(5-chloro-2-pyrimidinyl)-1-methoxy-N-(5-(6-methoxy-2-pyridinyl)-4-(2-propanyl)-4H-1,2,4-triazol-3-yl)-2-propanesulfonamide]: 6.4 nM. With `COCCn1c(NS(=O)(=O)[C@@H](C)[C@@H](OC(C)C)c2ncc(Cl)cn2)nnc1-c1cncc(C)c1` [Example 12.0, (1S,2S)-1-(5-chloro-2-pyrimidinyl)-N-(4-(2-methoxyethyl)-5-(5-methyl-3-pyridinyl)-4H-1,2,4-triazol-3-yl)-1-(2-propanyloxy)-2-propanesulfonamiide], the half-maximal effective concentration (EC50) came out at 120 nM. Next, `COCC(COC)n1c(NS(=O)(=O)[C@@H](C)[C@@H](OC(C)C)c2ncc(Cl)cn2)nnc1-c1cncc(C)c1` [Example 13.0, (1S,2S)-1-(5-chloro-2-pyrimidinyl)-N-(4-(1,3-dimethoxy-2-propanyl)-5-(5-methyl-3-pyridinyl)-4H-1,2,4-triazol-3-yl)-1-(2-propanyloxy)-2-propanesulfonamide]: 80 nM; `COCC(COC)n1c(NS(=O)(=O)[C@@H](C)[C@H](OC)c2ncc(Cl)cn2)nnc1-c1ccccn1` [Example 14.0, (1R,2S)-1-(5-chloro-2-pyrimidinyl)-N-(4-(1,3-dimethoxy-2-propanyl)-5-(2-pyridinyl)-4H-1,2,4-triazol-3-yl)-1-methoxy-2-propanesulfonamiide]: 6.4 nM.
